Data: PubChem BioAssay AID504478 (NMMLSC, 2011)

Target: Serine/threonine-protein kinase SCH9 (Saccharomyces cerevisiae (strain ATCC 204508 / S288c)) (UniProt P11792)
Test: reduction of phospho-Sch9 levels in yeast cells – cell-based, HA-Sch9, immunoblot, mechanism study for yeast TOR pathway modulator project, SAR follow-up (AID 504478)
Settings: S. cerevisiae HA-Sch9, T570 phospho immunoblot, 30 min

Serine/threonine-protein kinase SCH9 (Saccharomyces cerevisiae (strain ATCC 204508 / S288c)), sequence (P11792 whole entry, looked up): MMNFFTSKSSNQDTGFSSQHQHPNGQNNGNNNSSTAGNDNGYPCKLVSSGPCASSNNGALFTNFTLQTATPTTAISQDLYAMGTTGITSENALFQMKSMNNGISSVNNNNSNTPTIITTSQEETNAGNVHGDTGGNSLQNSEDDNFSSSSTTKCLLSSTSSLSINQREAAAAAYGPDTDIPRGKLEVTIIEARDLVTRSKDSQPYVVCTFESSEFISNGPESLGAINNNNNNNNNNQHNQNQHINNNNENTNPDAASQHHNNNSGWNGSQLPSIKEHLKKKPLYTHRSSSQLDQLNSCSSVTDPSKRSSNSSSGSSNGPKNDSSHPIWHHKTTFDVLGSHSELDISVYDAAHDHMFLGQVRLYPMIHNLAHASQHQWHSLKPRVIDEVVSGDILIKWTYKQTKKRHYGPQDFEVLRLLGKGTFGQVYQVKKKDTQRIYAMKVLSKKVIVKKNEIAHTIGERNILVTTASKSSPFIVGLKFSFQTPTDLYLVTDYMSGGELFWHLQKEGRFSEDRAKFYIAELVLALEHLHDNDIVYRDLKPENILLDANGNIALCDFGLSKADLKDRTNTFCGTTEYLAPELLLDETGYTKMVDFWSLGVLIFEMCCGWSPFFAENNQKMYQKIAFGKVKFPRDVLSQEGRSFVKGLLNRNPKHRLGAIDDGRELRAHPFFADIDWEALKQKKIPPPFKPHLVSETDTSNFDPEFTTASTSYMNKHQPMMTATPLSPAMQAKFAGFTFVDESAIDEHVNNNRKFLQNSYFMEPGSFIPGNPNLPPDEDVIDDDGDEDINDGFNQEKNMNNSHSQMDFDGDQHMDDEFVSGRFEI

CNc1nc(N)c([N+](=O)[O-])c(Nc2cccc(F)c2)n1
IC50: 4.5 µM
